Measured values: ChEMBL document CHEMBL3351956, “Design and synthesis of novel 1,2,3-triazole-pyrimidine hybrids as potential anticancer agents” (Eur J Med Chem, 2014)

Assays:
Format in all cases: functional, cell-based
MGC-803 = experiment: Cytotoxicity against human MGC803 cells assessed as inhibition of proliferation after 72 hrs by MTT assay; conditions: MGC-803, 72 h
[1] = Cytotoxicity against human EC109 cells assessed as inhibition of proliferation after 72 hrs by MTT assay; conditions: ECa-109, 72 h
[2] = Cytotoxicity against mouse B16F10 cells assessed as inhibition of proliferation after 72 hrs by MTT assay; conditions: B16-F10, 72 h
MCF7 = experiment: Cytotoxicity against human MCF7 cells assessed as inhibition of proliferation after 72 hrs by MTT assay; conditions: MCF7, 72 h

Row | Structure (SMILES) | IC50 (MGC-803) | IC50 [1] | IC50 [2] | IC50 (MCF7)
1 | O=c1[nH]cc(F)c(=O)[nH]1 [FLUOROURACIL] | 7.69 µM | 10.8 µM | 0.87 µM | 8.93 µM
2 | COc1ccc(Nc2nc(SCc3cn(Cc4ccccc4Cl)nn3)nc(-c3ccc(C(C)C)cc3)c2C#N)cc1 | > 64 µM | 3.58 µM | 2.69 µM | 10.2 µM
